Reference: US9682925B2, “Cyclopropaneamine compound” (TAKEDA PHARMACEUTICAL COMPANY LIMITED, priority 2011, dated 2017)
Structures can show the parent of a compound that is named as a salt.

What was measured:
Assay type in all cases: biochemical
MAO-A = target: T1, MAO-A (Homo sapiens, UniProt P21397); assay: Measurement of MAO-A inhibitory activity (MAO-Glo Assay)
T1 construct: purchased Sigma-Aldrich Co. LLC
T1 sequence (P21397 1-527): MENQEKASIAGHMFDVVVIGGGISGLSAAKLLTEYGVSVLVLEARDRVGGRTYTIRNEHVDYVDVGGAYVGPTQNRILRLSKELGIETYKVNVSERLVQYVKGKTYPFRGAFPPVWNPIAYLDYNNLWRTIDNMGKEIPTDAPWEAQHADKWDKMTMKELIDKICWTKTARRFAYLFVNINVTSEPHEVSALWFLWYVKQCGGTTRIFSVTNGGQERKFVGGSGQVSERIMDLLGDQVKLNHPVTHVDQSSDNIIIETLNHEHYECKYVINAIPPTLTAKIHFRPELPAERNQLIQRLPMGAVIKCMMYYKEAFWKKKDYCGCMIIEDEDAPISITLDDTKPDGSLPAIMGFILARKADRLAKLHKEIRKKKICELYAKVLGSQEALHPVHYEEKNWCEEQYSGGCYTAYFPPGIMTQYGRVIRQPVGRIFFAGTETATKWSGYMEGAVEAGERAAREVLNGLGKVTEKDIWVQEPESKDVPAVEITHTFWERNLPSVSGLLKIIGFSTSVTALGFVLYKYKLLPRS
Summary of the method: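 Luminescent MAO-Glo read-out: % inhibition computed from counts relative to enzyme-only control and enzyme-free blank. Compound and 400 ng MAO-A in HEPES pH 7.5 with 5% glycerol stood 10 min at room temperature before MAO substrate (160 μM stock) started a 60 min reaction.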

MAO-B = target: T2, MAO-B (Homo sapiens, UniProt P27338); assay: Measurement of MAO-B inhibitory activity (MAO-Glo Assay)
T2 construct: purchased Sigma-Aldrich Co. LLC
T2 sequence (P27338 1-520): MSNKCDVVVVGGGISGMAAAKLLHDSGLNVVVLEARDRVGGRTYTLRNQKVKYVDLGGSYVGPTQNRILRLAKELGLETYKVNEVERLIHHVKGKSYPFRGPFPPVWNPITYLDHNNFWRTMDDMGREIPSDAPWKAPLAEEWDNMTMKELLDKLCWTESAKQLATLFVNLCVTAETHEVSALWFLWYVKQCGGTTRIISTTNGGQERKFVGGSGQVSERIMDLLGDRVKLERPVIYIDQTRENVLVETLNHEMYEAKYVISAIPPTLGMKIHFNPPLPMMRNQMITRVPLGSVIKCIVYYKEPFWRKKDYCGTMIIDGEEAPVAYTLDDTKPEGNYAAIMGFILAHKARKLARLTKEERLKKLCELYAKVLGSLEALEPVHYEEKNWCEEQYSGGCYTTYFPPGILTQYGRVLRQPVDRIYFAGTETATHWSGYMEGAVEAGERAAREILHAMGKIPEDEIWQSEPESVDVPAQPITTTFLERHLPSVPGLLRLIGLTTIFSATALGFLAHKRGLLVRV
Summary of the method: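 Percent inhibition was calculated from luciferin-based luminescence, corrected with a blank lacking enzyme and a control lacking compound. The reaction ran 60 min at room temperature after adding MAO substrate (16 µM as added). This followed a 10 min compound–enzyme preincubation in HEPES pH 7.5 buffer.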

human LSD1(171-852) = target: T3, human LSD1(171-852) (Homo sapiens, UniProt O60341); assay: Measurement of LSD1 inhibitory activity (time-resolved fluorescence, biotin-histone H3 mono methylated K4 peptide); conditions: read-out: LSD1 IC50 value
T3 construct: to give hLSD1(171-852) purified product; made in house; host or cells: Escherichia coli C43(DE3) pLysS

| Structure (SMILES) | IC50 (MAO-A) | IC50 (MAO-B) | IC50 (human LSD1(171-852)) |
| --- | --- | --- | --- |
| COc1ccc(CN[C@@H]2C[C@H]2c2ccc(NC(=O)c3ccc(-c4ccccc4)cc3)cc2)cc1 (relative stereo) [Example 43, N-(4-{trans-2-[(4-methoxybenzyl)-amino]cyclo-propyl}phenyl)-biphenyl-4-carboxamide] | 3.3 µM | 4.7 µM | 0.11 µM |
| CCCCCCCCN[C@@H]1C[C@H]1c1ccc(NC(=O)c2cccc(Br)c2)cc1 (relative stereo) [Example 4, 3-bromo-N-{4-[trans-2-(octylamino)cyclopropyl]phenyl}benzamide] | > 10 µM | > 10 µM | 0.24 µM |
| CCCCCCCCCCCCN[C@@H]1C[C@H]1c1ccc(NC(=O)c2ccccc2)cc1 (relative stereo) [Example 22, N-{4-[trans-2-(dodecylamino)-cyclopropyl]-phenyl}benzamide] | 3.6 µM | 2.6 µM | 0.41 µM |
| C=CCOC(=O)N1CCC(N[C@@H]2C[C@H]2c2ccc(NC(=O)c3ccc(-c4ccccc4)cc3)cc2)CC1 (relative stereo) [Example 55, allyl 4-{[trans-2-{4-[(biphenyl-4-yl-carbonyl)amino]-phenyl}cyclo-propyl]amino}-piperidine-1-carboxylate] | > 10 µM | > 10 µM | 0.13 µM |
| O=C(Nc1ccc([C@@H]2C[C@H]2NCc2cccs2)cc1)c1ccccc1 (relative stereo) [Example 13, N-(4-{trans-2-[(thiophen-2-ylmethyl)amino]-cyclopropyl}-phenyl)benzamide] | > 10 µM | > 10 µM | < 0.1 µM |
| CN1CCC(N[C@@H]2C[C@H]2c2ccc(NC(=O)c3cccc(Br)c3)cc2)CC1 (relative stereo) [Example 5, 3-bromo-N-(4-{trans-2-[(1-methylpiperidin-4-yl)amino]cyclopropyl}phenyl)benzamide] | 7.7 µM | > 10 µM | < 0.1 µM |
| O=C(Nc1ccc([C@@H]2C[C@H]2NCc2ccccc2F)cc1)c1cccc(C(F)(F)F)c1 (relative stereo) [Example 67, N-(4-{trans-2-[(2-fluorobenzyl)amino]cyclopropyl}phenyl)-3-(trifluoromethyl)benzamide hydrochloride] | > 10 µM | > 10 µM | < 0.1 µM |
| O=C(Nc1ccc([C@@H]2C[C@H]2NC2CCN(CC(F)(F)F)CC2)cc1)c1ccc(-c2ccccc2)cc1 (relative stereo) [Example 63, N-{4-[trans-2-{[1-(2,2,2-trifluoroethyl)piperidin-4-yl]amino}cyclopropyl]phenyl}biphenyl-4-carboxamide hydrochloride] | > 10 µM | > 10 µM | < 0.1 µM |
| O=C(Nc1ccc([C@@H]2C[C@H]2NCC2CC2)cc1)c1ccc(C(F)(F)F)cc1 (relative stereo) [Example 69, N-(4-{trans-2-[(cyclopropylmethyl)amino]cyclopropyl}phenyl)-4-(trifluoromethyl)benzamide hydrochloride] | > 10 µM | > 10 µM | < 0.1 µM |
| CN1CCC(N[C@@H]2C[C@H]2c2ccc(NC(=O)c3ccc(-c4ccccc4)cc3)cc2)CC1 (relative stereo) [Example 50, N-(4-{trans-2-[(1-methylpiperidin-4-yl)amino]cyclo-propyl}phenyl)-biphenyl-4-carboxamide] | > 10 µM | > 10 µM | < 0.1 µM |
| O=C(Nc1ccc([C@@H]2C[C@H]2N2CCCC2)cc1)c1ccccc1 (relative stereo) [Example 30, N-{4-[trans-2-(pyrrolidin-1-yl)cyclopropyl]phenyl}benzamide hydrochloride] | 1.7 µM | > 10 µM | 0.58 µM |

More lines, now with the values ahead:

| IC50 (MAO-A) | IC50 (MAO-B) | IC50 (human LSD1(171-852)) | Structure (SMILES) |
| --- | --- | --- | --- |
| 5 µM | > 10 µM | < 0.1 µM | O=C(Nc1ccc([C@@H]2C[C@H]2NCC2CC2)cc1)c1ccc(-c2ccccc2)o1 (relative stereo) [Example 123, N-(4-{trans-2-[(cyclopropyl-methyl)amino]cyclo-propyl}phenyl)-5-phenyl-2-furamide] |
| > 10 µM | > 10 µM | < 0.1 µM | O=C(Nc1ccc([C@@H]2C[C@H]2NCC2CC2)cc1)c1cnn(-c2ccccc2)c1 (relative stereo) [Example 124, N-(4-{trans-2-[(cyclopropyl-methyl)amino]cyclo-propyl}phenyl)-1-phenyl-1H-pyrazole-4-carboxamide] |
| 3.1 µM | > 10 µM | < 0.1 µM | O=C(Nc1ccc([C@@H]2C[C@H]2NCc2cscn2)cc1)c1cccc(C(F)(F)F)c1 (relative stereo) [Example 72, N-(4-{trans-2-[(1,3-thiazol-4-ylmethyl)amino]cyclopropyl}phenyl)-3-(trifluoromethyl)benzamide dihydrochloride] |
| > 10 µM | > 10 µM | < 0.1 µM | O=C(Nc1ccc([C@@H]2C[C@H]2NCC2CC2)cc1)c1ccc2[nH]ncc2c1 (relative stereo) [Example 99, N-(4-{trans-2-[(cyclopropylmethyl)-amino]cyclopropyl}-phenyl)-1H-indazole-5-carboxamide] |
| > 10 µM | > 10 µM | < 0.1 µM | Cn1ncc(C(=O)Nc2ccc([C@@H]3C[C@H]3NCC3CC3)cc2)c1C(F)(F)F (relative stereo) [Example 159, N-(4-{trans-2-[(cyclopropylmethyl)amino]cyclopropyl}phenyl)-1-methyl-5-(trifluoromethyl)-1H-pyrazole-4-carboxamide hydrochloride] |
| > 10 µM | > 10 µM | < 0.1 µM | Cc1ccc(C)c(C(=O)Nc2ccc([C@@H]3C[C@H]3NCC3CC3)cc2)c1 (relative stereo) [Example 106, N-(4-{trans-2-[(cyclopropylmethyl)amino]cyclopropyl}phenyl)-2,5-dimethylbenzamide hydrochloride] |
| > 10 µM | > 10 µM | < 0.1 µM | NS(=O)(=O)c1ccc(C(=O)Nc2ccc([C@@H]3C[C@H]3NCC3CC3)cc2)cc1 (relative stereo) [Example 88, N-(4-{trans-2-[(cyclopropylmethyl)amino]cyclopropyl}-phenyl)-4-sulfamoylbenzamide] |
| > 10 µM | > 10 µM | < 0.1 µM | O=C(Nc1ccc([C@@H]2C[C@H]2NC2CCS(=O)(=O)CC2)cc1)c1cccc(C(F)(F)F)c1 (relative stereo) [Example 151, N-(4-{trans-2-[(1,1-dioxidotetrahydro-2H-thiopyran-4-yl)amino]cyclopropyl}phenyl)-3-(trifluoromethyl)benzamide hydrochloride] |
| > 10 µM | > 10 µM | < 0.1 µM | CN1CCC(N[C@@H]2C[C@H]2c2ccc(NC(=O)c3cccc(C(F)(F)F)c3)cc2)CC1 (single isomer, unassigned) [Example 153, N-(4-{(1S,2R) or (1R,2S)-2-[(1-methylpiperidin-4-yl)amino]cyclopropyl}phenyl)-3-(trifluoromethyl)benzamide dihydrochloride] |
| > 10 µM | > 10 µM | < 0.1 µM | Cc1nc(-c2cccc(C(=O)Nc3ccc([C@@H]4C[C@H]4NCC4CC4)cc3)c2)cs1 (relative stereo) [Example 101, N-(4-{trans-2-[(cyclopropylmethyl)-amino]cyclopropyl}-phenyl)-3-(2-methyl-1,3-thiazol-4-yl)benzamide] |
| 4.2 µM | > 10 µM | < 0.1 µM | O=C(Nc1ccc([C@@H]2C[C@H]2NCC2CC2)cc1)c1cc(-c2ccccc2)cs1 (relative stereo) [Example 137, N-(4-{trans-2-[(cyclopropylmethyl)amino]cyclopropyl}phenyl)-4-phenylthiophene-2-carboxamide hydrochloride] |
